Experimental data from patent US7074789B2, “Kinase inhibitors” (Amgen Inc., priority 1999, dated 2006).
Where two headings read alike, the source gives them in different places.

Key:
Format in all cases: biochemical
Lck = target: T1, Lck (Homo sapiens, UniProt P06239); assay: Kinase inhibition assay (33P transfer), Lck
T1 construct: Kinases are expressed as either kinase domains or full length constructs; made in house
Procedure, shortened: (§1)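 Measured by scintillation: radiolabelled phosphate added by tagged recombinant kinases to poly(Glu,Tyr) 4:1 or poly(Arg,Ser) 3:1 attached to microtiter wells, counted once free label was washed away with 0.5% phosphoric acid.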

Zap-70 = target: T2, Zap-70 (Homo sapiens, UniProt P43403); assay: Kinase inhibition assay (33P transfer), Zap-70
T2 construct: Kinases are expressed as either kinase domains or full length constructs; made in house
T2 sequence (P43403 1-619): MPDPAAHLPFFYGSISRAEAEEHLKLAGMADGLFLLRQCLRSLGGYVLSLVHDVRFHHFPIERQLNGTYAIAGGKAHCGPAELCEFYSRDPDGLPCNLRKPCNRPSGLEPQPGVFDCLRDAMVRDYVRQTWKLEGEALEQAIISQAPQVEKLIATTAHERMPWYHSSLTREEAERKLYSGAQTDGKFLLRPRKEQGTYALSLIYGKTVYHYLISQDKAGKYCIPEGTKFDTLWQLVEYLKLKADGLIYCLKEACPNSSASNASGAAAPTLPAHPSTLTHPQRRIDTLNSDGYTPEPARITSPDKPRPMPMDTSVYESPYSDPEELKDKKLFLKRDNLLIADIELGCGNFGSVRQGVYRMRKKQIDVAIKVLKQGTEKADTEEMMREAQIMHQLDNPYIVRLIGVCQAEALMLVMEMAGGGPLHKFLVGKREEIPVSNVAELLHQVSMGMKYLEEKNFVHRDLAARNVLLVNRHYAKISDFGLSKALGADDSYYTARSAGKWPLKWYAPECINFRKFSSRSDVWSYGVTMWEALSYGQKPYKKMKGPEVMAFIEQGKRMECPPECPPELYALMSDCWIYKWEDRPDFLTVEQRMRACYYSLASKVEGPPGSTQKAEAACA
Procedure, shortened: as §1

Itk = target: T3, Itk (Homo sapiens, UniProt Q08881); assay: Kinase inhibition assay (33P transfer), Itk; details: Table 3, class symbols; read-out: Itk-1
T3 construct: Kinases are expressed as either kinase domains or full length constructs; made in house
T3 sequence (Q08881 1-620): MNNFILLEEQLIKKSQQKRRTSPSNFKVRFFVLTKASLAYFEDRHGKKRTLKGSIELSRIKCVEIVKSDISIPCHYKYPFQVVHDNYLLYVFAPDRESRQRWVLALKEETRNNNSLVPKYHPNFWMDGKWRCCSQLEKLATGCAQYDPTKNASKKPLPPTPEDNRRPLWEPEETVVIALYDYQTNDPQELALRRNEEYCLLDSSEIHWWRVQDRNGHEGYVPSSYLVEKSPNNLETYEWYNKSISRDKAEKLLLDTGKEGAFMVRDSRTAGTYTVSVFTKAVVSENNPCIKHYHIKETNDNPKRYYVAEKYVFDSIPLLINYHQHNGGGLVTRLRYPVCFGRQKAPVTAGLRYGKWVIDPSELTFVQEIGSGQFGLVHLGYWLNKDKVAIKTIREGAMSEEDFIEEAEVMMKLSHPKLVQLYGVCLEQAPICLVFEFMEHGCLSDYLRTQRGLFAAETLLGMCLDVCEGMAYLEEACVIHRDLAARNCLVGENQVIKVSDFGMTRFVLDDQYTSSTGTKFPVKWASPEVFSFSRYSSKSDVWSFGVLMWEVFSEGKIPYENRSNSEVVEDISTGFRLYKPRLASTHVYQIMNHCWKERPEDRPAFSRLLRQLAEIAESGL
Procedure, shortened: (§2)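 Activity read as 33P incorporation from ATP into poly(Glu,Tyr) 4:1 or poly(Arg,Ser) 3:1 substrate bound to microtiter plates, measured by scintillation after acid washing. Enzymes were affinity-purified GST or polyHis fusions (kinase domain or full length) from E. coli or baculovirus; IC50 = 50% reduction in labelled phosphate.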

EGFR = target: T4, EGFR (Homo sapiens, UniProt P00533); assay: Kinase inhibition assay (33P transfer), EGFR; details: Table 2, class symbols A-E; read-out: EGFR-1
T4 construct: Kinases are expressed as either kinase domains or full length constructs; made in house
Procedure, shortened: as §2

ErbB2 = target: T5, ErbB2 (Homo sapiens, UniProt P04626); assay: Kinase inhibition assay (33P transfer), ErbB2; details: read-out: ErbB2-2
T5 construct: Kinases are expressed as either kinase domains or full length constructs; made in house
Procedure, shortened: as §2

Kdr = target: T6, Kdr (Homo sapiens, UniProt P35968); assay: Kinase inhibition assay (33P transfer), Kdr; details: Table 3, class symbols; read-out: KDR-1
T6 construct: Kinases are expressed as either kinase domains or full length constructs; made in house
Procedure, shortened: as §1

c-Met = target: T7, c-Met (Homo sapiens, UniProt P08581); assay: Kinase inhibition assay (33P transfer), c-Met; details: Table 2, class symbols A-E; read-out: Met-1
T7 construct: Kinases are expressed as either kinase domains or full length constructs; made in house
Procedure, shortened: as §2

AKT = target: T8, AKT (Homo sapiens, UniProt Q9Y243); assay: Kinase inhibition assay (33P transfer), AKT
T8 construct: Kinases are expressed as either kinase domains or full length constructs; made in house
Procedure, shortened: as §1

IGFR-1 = target: T9, IGFR-1 (Homo sapiens, UniProt P08069); assay: Kinase inhibition assay (33P transfer), IGFR-1; details: Table 2, class symbols A-E
T9 construct: Kinases are expressed as either kinase domains or full length constructs; made in house

[1] = Table 3, class symbols, read-out: Lck-1
[2] = Table 3, class symbols, read-out: Zap-1
[3] = Table 2, class symbols A-E, read-out: AKT3-1

T8 sequence (Q9Y243 whole entry, the tested form may be a part): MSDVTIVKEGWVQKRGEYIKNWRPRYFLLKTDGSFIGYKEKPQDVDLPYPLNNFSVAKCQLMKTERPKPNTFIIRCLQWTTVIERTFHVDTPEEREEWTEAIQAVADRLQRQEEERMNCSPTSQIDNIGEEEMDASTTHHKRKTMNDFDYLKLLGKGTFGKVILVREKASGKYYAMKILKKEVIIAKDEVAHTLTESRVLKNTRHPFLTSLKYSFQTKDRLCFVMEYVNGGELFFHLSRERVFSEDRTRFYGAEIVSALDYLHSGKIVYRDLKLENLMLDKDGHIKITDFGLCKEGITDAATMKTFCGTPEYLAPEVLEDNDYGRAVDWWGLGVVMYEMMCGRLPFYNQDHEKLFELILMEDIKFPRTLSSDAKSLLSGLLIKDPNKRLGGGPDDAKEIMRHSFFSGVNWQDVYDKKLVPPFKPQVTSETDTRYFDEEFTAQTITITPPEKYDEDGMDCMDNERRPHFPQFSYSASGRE
T9 sequence (P08069 31-1367): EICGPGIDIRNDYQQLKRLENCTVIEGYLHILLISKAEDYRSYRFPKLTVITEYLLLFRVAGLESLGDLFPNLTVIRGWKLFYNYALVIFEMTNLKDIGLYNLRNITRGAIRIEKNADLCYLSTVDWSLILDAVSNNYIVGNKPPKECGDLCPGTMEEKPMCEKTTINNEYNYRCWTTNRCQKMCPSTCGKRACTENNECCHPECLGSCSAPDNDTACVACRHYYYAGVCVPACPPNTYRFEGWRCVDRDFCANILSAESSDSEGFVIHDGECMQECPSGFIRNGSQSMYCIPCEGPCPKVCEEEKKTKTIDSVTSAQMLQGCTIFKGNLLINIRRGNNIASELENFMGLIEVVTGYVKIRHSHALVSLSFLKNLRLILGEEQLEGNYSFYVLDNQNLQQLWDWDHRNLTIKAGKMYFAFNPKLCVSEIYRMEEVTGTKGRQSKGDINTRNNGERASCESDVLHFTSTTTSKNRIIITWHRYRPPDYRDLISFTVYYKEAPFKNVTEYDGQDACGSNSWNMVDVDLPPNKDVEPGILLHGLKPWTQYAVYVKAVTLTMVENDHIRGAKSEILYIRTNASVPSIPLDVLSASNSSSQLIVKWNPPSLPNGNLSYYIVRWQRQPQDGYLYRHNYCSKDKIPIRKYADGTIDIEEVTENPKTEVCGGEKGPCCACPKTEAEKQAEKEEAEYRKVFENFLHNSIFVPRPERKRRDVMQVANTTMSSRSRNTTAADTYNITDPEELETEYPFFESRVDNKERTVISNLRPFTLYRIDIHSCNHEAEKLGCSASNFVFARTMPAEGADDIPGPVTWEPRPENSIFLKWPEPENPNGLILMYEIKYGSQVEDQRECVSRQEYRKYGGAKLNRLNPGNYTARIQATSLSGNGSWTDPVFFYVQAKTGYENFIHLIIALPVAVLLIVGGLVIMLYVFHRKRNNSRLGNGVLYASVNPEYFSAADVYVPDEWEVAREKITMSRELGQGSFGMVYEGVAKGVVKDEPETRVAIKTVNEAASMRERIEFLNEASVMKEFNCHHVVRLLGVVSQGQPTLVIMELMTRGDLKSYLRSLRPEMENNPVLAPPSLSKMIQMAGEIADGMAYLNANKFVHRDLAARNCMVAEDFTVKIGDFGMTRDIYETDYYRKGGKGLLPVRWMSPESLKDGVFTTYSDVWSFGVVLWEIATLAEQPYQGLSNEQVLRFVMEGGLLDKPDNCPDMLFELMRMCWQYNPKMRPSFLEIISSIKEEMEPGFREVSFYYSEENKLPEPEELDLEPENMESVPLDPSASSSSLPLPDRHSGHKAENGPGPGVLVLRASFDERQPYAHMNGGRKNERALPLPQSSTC
T5 sequence (P04626 23-1255, species assumed): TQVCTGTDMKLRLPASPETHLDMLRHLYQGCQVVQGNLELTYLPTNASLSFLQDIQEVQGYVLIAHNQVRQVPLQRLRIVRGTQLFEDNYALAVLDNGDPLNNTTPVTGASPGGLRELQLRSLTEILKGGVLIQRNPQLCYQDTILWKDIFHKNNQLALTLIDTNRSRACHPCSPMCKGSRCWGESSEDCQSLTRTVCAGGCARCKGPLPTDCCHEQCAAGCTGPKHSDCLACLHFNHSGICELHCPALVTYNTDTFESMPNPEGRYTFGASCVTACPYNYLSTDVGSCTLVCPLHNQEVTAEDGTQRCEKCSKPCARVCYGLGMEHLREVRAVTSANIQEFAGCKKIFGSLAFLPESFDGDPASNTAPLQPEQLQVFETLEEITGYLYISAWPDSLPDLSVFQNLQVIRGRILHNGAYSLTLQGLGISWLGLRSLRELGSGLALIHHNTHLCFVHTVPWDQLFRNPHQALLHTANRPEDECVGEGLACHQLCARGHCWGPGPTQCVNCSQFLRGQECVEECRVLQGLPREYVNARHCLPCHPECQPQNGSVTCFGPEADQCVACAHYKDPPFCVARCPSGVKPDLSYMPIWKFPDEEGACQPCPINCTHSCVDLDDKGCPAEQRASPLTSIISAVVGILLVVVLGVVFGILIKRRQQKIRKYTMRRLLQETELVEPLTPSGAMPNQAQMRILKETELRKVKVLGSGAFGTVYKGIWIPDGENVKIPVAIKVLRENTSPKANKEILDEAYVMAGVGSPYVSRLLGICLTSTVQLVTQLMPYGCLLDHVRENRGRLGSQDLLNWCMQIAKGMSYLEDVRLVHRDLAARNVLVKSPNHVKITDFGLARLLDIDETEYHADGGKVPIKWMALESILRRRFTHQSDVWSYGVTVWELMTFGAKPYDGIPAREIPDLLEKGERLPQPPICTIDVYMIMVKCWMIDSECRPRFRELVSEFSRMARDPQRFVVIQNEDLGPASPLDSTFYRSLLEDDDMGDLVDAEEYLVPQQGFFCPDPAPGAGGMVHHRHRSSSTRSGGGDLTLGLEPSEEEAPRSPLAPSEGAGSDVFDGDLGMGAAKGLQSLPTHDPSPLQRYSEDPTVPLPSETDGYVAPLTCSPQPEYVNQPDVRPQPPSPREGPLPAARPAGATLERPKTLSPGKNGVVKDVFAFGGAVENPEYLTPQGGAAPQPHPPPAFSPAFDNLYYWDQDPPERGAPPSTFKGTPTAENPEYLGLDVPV
T6 sequence (P35968 20-1356, species assumed): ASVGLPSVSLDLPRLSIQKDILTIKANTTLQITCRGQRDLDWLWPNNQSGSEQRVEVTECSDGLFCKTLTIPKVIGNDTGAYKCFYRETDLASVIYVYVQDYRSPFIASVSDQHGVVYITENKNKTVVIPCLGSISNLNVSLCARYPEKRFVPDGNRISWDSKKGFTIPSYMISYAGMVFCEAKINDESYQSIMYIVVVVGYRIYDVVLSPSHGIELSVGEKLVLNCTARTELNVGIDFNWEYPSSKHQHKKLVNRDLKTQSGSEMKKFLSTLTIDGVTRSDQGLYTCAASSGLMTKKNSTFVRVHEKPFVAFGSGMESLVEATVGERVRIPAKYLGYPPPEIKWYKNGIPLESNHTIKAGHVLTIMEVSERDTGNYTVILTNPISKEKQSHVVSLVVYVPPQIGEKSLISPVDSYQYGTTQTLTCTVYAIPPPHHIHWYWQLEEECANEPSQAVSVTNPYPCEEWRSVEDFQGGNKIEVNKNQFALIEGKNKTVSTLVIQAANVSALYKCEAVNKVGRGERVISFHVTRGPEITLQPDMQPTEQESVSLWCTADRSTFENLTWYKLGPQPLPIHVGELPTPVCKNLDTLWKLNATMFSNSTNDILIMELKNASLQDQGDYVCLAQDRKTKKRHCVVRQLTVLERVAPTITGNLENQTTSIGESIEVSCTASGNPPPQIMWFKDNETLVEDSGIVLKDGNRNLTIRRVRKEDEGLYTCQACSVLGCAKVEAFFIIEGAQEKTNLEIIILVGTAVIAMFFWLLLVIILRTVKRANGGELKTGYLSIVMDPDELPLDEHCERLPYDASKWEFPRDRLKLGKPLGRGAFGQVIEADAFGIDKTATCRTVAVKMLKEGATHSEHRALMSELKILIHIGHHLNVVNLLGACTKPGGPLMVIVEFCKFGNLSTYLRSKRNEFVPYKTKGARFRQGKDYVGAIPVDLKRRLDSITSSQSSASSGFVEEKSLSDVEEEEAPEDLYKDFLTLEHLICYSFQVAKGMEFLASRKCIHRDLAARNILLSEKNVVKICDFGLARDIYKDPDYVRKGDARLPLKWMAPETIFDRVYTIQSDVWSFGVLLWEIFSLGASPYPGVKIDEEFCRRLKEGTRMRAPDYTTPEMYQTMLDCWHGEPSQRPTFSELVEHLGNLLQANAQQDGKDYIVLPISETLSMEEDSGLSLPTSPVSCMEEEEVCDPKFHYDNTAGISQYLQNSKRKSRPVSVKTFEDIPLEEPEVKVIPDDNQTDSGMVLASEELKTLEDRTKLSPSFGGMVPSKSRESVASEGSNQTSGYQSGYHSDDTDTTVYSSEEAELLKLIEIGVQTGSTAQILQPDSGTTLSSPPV
T1 sequence (P06239 whole entry, species assumed, the tested form may be a part): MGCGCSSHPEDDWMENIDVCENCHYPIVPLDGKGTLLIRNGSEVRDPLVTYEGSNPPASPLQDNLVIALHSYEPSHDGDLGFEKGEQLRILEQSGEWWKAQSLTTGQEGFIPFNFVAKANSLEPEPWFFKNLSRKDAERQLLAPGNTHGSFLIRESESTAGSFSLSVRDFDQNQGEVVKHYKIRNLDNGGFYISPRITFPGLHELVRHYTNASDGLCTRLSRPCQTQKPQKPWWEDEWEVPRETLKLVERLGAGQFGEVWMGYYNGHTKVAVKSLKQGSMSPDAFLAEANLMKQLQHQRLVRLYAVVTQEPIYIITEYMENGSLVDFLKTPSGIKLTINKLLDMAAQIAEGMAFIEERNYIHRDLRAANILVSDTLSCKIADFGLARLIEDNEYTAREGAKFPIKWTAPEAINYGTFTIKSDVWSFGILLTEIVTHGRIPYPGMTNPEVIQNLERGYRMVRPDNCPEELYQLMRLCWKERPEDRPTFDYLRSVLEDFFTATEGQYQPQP

Compound	IC50 (Lck; [1])	IC50 (Zap-70; [2])	IC50 (Itk)	IC50 (EGFR)	IC50 (ErbB2)	IC50 (Kdr)	IC50 (c-Met)	IC50 (AKT; [3])	IC50 (IGFR-1)	IC50 (Lck; Lck-1, Table 3, class symbols)	IC50 (Zap-70)	IC50 (AKT; AKT3-1, Table 2, class symbols A-E)
Clc1cccc(Nc2ncnc(Nc3ccc4[nH]ncc4c3)n2)c1 [Compound 134]	1.18 to 7.11 µM	1.18 to 7.11 µM	< 1.18 µM	< 1.18 µM	1.18 to 7.11 µM	< 1.18 µM	< 1.18 µM	1.18 to 7.11 µM	< 1.18 µM			
CCOc1ccc(Nc2ncnc(N(C)c3cccc(Cl)c3)n2)cc1OCC [Compound 640]	1 to 6 µM	> 11.3 µM	> 11.3 µM	< 1 µM	< 1 µM	1 to 6 µM	1 to 6 µM	> 11.3 µM	> 11.3 µM			
CN(c1cccc(Cl)c1)c1ncnc(Nc2ccc(OCCO)cc2)n1 [Compound 641]	1.08 to 6.45 µM	> 12.1 µM	> 12.1 µM	< 1.08 µM	1.08 to 6.45 µM	1.08 to 6.45 µM	< 1.08 µM	> 12.1 µM	1.08 to 6.45 µM			
COc1cc(Nc2ncnc(Nc3cc(-c4ccc(C(N)=O)cc4)n[nH]3)n2)cc(OC)c1OC [Compound 642]	< 0.865 µM	> 9.73 µM	0.865 to 5.19 µM	0.865 to 5.19 µM	0.865 to 5.19 µM	0.865 to 5.19 µM	< 0.865 µM	> 9.73 µM	< 0.865 µM			
c1ccc(Cn2ncc3cc(Nc4ncnc(Nc5cccc(Cn6ccnn6)c5)n4)ccc32)cc1 [Compound 676]	0.843 to 5.06 µM	> 9.48 µM	0.843 to 5.06 µM	< 0.843 µM	< 0.843 µM	0.843 to 5.06 µM	0.843 to 5.06 µM	5.06 to 7.38 µM	0.843 to 5.06 µM			
CN(c1ccc2c(cnn2Cc2ccccc2)c1)c1ncnc(Nc2cccc(Cn3ccnn3)c2)n1 [Compound 677]	0.819 to 4.91 µM	> 9.21 µM	4.91 to 7.16 µM	< 0.819 µM	< 0.819 µM	< 0.819 µM	< 0.819 µM	> 9.21 µM	4.91 to 7.16 µM			
COc1cc(Nc2ncnc(Nc3cccc(Cl)c3)n2)cc(OC)c1 [Compound 723]	1.12 to 6.71 µM	1.12 to 6.71 µM	9.78 to 12.6 µM	< 1.12 µM	< 1.12 µM	1.12 to 6.71 µM	6.71 to 9.78 µM	1.12 to 6.71 µM	< 1.12 µM			
COc1ccc(Nc2ncnc(Nc3ccc4c(c3)C(=O)N(C)C4=O)n2)cc1OC [Compound 856]	> 11.1 µM	> 11.1 µM	> 11.1 µM	> 11.1 µM	0.984 to 5.91 µM	> 11.1 µM	> 11.1 µM	> 11.1 µM	5.91 to 8.61 µM			
COc1ccc(Nc2ncnc(NCC(=O)c3ccccc3)n2)cc1OC [Compound 857]	> 12.3 µM	> 12.3 µM	> 12.3 µM	6.57 to 9.58 µM	6.57 to 9.58 µM	> 12.3 µM	> 12.3 µM	> 12.3 µM	> 12.3 µM			
COc1ccc(Nc2ncnc(NCc3ncc(C(F)(F)F)cc3Cl)n2)cc1OC [Compound 858]	> 10.2 µM	> 10.2 µM	> 10.2 µM	5.44 to 7.94 µM	> 10.2 µM	> 10.2 µM	> 10.2 µM	> 10.2 µM	> 10.2 µM			
COc1ccc(Nc2ncnc(NCCc3ccc(Cl)c(Cl)c3)n2)cc1OC [Compound 859]	> 10.7 µM	0.952 to 5.71 µM	0.952 to 5.71 µM	0.952 to 5.71 µM	0.952 to 5.71 µM	5.71 to 8.33 µM	0.952 to 5.71 µM	0.952 to 5.71 µM	5.71 to 8.33 µM			
COc1ccc(Nc2ncnc(N(C)c3ccc(C(=O)O)cc3)n2)cc1OC [Compound 860]	> 11.8 µM	> 11.8 µM	> 11.8 µM	> 11.8 µM	9.18 to 11.8 µM	6.29 to 9.18 µM	1.05 to 6.29 µM	> 11.8 µM	6.29 to 9.18 µM			
COc1ccc(Nc2ncnc(N(C)C3CCN(C)CC3)n2)cc1OC [Compound 861]	> 12.6 µM	> 12.6 µM	> 12.6 µM	> 12.6 µM	6.7 to 9.76 µM	> 12.6 µM	> 12.6 µM	> 12.6 µM	> 12.6 µM			
COc1ccc(Nc2ncnc(N(C)c3ccc([N+](=O)[O-])cc3)n2)cc1OC [Compound 862]	> 11.8 µM	> 11.8 µM	> 11.8 µM	1.05 to 6.28 µM	> 11.8 µM	> 11.8 µM	< 1.05 µM	> 11.8 µM	> 11.8 µM			
COc1ccc(N(C)c2ncnc(Nc3ccc(OC)c(OC)c3)n2)cc1 [Compound 863]	1.09 to 6.53 µM	> 12.2 µM	> 12.2 µM	< 1.09 µM	6.53 to 9.53 µM	1.09 to 6.53 µM	1.09 to 6.53 µM	> 12.2 µM	> 12.2 µM			
COC(=O)c1ccc(N(C)c2ncnc(Nc3ccc(OC)c(OC)c3)n2)cc1 [Compound 864]	> 11.4 µM	> 11.4 µM	> 11.4 µM	> 11.4 µM	> 11.4 µM	1.01 to 6.07 µM	< 1.01 µM	> 11.4 µM	> 11.4 µM			
COc1ccc(Nc2ncnc(N(C)c3ccccc3Cl)n2)cc1OC [Compound 865]	1.08 to 6.45 µM	> 12.1 µM	> 12.1 µM	< 1.08 µM	1.08 to 6.45 µM	6.45 to 9.41 µM	1.08 to 6.45 µM	> 12.1 µM	> 12.1 µM			
COC(=O)c1cccc(Nc2ncnc(-n3c(NCc4ccccc4)nc4ccccc43)n2)c1 [Compound 1067]	> 9.97 µM	> 9.97 µM	> 9.97 µM	0.886 to 5.32 µM	0.886 to 5.32 µM	< 0.886 µM	> 9.97 µM	> 9.97 µM	> 9.97 µM			
COC(=O)c1cccc(Nc2ncnc(-n3c(NCc4ccc(OC)cc4)nc4ccccc43)n2)c1 [Compound 1068]	> 9.35 µM	> 9.35 µM	> 9.35 µM	> 9.35 µM	4.98 to 7.27 µM	< 0.831 µM	> 9.35 µM	> 9.35 µM	> 9.35 µM			
COc1cc(Nc2ncnc(-c3cccnc3Nc3ccccc3)n2)cc(OC)c1OC [Compound 1092]			> 10.5 µM	> 10.5 µM	> 10.5 µM		> 10.5 µM		> 10.5 µM	> 10.5 µM	> 10.5 µM	> 10.5 µM
COc1cc(Nc2ncnc(-c3cccnc3N[C@H](C)c3ccccc3)n2)cc(OC)c1OC [Compound 1110]	< 0.872 µM	> 9.81 µM	> 9.81 µM	0.872 to 5.23 µM	> 9.81 µM	5.23 to 7.63 µM	> 9.81 µM	> 9.81 µM	> 9.81 µM			
c1ccc(Nc2ncccc2-c2ncnc(Nc3ccc4[nH]ncc4c3)n2)cc1 [Compound 1117]	> 11.8 µM	> 11.8 µM	> 11.8 µM	9.2 to 11.8 µM		< 1.05 µM	1.05 to 6.31 µM	> 11.8 µM	> 11.8 µM			
